Test results taken from US12435062B2, “Amide compounds and uses thereof” (HUTCHISON MEDIPHARMA LIMITED, priority 2020, dated 2025).
pIC50: −log10 of the molar value.

Legend:
Ba/F3^BCR-FMS-11 cells = experiment: Cell proliferation experiment (Ba/F3^BCR-FMS-11, cckit-8); type: cell-based, mouse; conditions: Ba/F3^BCR-FMS-11 cell proliferation
Method: Cell Proliferation Experiment
Ba/F3^BCR-FMS-11, mouse primary B lymphocytes stably expressing the BCR-FMS fusion gene. The cells were cultured in an RPMI 1640 medium containing 10% FBS.
(§1) 2. Reagents and instruments
• cckit-8 kit: Dojindo, 9 CK04; • Envision: Perkin Elmer; • Cell culture plate: Facol, 9353027. 3. Experimental steps
The BCR-FMS fusion gene was transfected into Ba/F3 cells, and the cell line Ba/F3^BCR-FMS-11 that stably expresses BCR-FMS and grows depending on CSF-1R was screened. Ba/F3^BCR-FMS-11 cell proliferation experiments is completed by using the Cell Counting kit cckit-8 in a 96-well plate. In a 96-well plate, 5000/well of Ba/F3^BCR-FMS-11 cells were inoculated at 100 μL/well. […] 10 μL of the compound dilutions with the above 8 concentrations were added to the culture cell wells. The culture was incubated in a 37° C. and 5% CO2 cell incubator for 72 hours. 10 μL of Cell Counting kit cckit-8 detection reagent was added to each well, and incubated at 37° C. and 5% CO2 in a cell incubator for another 1 h. The optical density absorption value at 450 nm of each well was detected by using Perkin Elmer Envision instrument.
wherein • Drug-treated well read-out: indicating the optical density signal of a cell well with the test compound treatment. • Cell well read-out: indicating the optical density signal of a cell well not treated with the test compound (only 0.5% DMSO). • Background read-out: indicating the optical density signal of a well with the cell medium. 5. Calculation of IC50: obtained by using XL-Fit 5.3 software. 6. Test results

[1] = molecular target: Recombinant human CSF1R kinase (Homo sapiens (Human), UniProt P07333); type: biochemical; conditions: Z-LYTE Tyr 1 peptide substrate
Chain of Recombinant human CSF1R kinase (P07333 20-972): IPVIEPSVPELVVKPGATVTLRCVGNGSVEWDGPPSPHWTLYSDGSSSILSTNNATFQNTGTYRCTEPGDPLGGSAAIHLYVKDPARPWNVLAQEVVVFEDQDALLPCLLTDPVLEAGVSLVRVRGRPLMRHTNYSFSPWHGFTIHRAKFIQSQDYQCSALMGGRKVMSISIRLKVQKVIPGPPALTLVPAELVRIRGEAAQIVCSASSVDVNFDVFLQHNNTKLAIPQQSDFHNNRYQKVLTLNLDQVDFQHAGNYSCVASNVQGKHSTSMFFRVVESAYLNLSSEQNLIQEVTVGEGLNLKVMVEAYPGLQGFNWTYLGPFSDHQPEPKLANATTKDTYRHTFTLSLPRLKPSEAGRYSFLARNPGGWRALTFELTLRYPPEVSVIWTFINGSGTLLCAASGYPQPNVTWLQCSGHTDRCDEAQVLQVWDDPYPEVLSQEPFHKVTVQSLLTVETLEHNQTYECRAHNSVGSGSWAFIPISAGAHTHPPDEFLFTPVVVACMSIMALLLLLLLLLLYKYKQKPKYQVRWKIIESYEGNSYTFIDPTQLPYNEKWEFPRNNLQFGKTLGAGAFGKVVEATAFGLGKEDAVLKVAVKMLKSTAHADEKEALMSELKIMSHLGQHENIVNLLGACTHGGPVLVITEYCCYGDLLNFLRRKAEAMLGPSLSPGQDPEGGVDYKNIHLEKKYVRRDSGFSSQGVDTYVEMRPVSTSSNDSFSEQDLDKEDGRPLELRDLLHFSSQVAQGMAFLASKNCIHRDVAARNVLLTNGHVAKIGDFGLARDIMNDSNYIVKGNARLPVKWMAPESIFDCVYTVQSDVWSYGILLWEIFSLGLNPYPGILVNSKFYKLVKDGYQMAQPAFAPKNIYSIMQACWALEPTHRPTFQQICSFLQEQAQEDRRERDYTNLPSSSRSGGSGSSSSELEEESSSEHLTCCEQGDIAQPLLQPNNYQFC

[2] = molecular target: CSF1R phosphorylation in THP-1 cells (Homo sapiens (Human), UniProt P07333); experiment: Detection of CSF1R phosphorylation activity at cell level (THP-1, M-CSF stimulated, ELISA); type: cell-based; conditions: p-CSF1R ELISA, compound 60 min, 300 ng/mL M-CSF 1 min
Chain of CSF1R phosphorylation in THP-1 cells (P07333 20-972): as above
Method: Detection of CSF1R Phosphorylation Activity at Cell Level
THP-1 (ATCC), human acute monocytic leukemia cells. The cells were cultured in an RPMI 1640 medium containing 10% FBS.
as §1
• Human phosphorylation-CSF1R ELISA kit: R&D, #DYC3268-2; • RPMI 1640 culture solution: GIBCO, 910491; • Human M-CSF recombinant cytokine: R&D, 9216-MC-500; • Cell lysis buffer: Cell Signal, 99803S; • 1×PBS buffer (1 L): 8.0 g of NaCl, 0.2 g of KCl, 3.58 g of Na2HPO4-12H2O, 0.24 g of KH2PO4 were dissolved in 1 L of dd H2O, and the pH was adjusted to 7.4; • Blocking solution: PBS buffer containing 1% BSA; • PBST washing liquid: PBS buffer containing 0.05% Tween-20; • Chromogenic substrate: R&D, #DY999; • 2N H2SO4; • Microwell plate reader: Labsystems Multiskan K3: Thermo; Envision: Perkin Elmer; • ELISA plate: Corning, #9018; • Cell culture plate: Facol, #353027. 3. Treatment of cells and preparation of lysis buffer
THP-1 cells were resuspended in RPMI-1640 culture solution containing 2% FBS, and the culture was added to a 96-well plate at a density of 5×10^4/well, 50 μL/well, and cultured in a cell incubator at 5% CO2 and 37° C. overnight; The test compound was diluted with a serum-free RPMI-1640 medium to 3, 1.1, 0.37, 0.12, 0.04, 0.014, 0.005 and 0.002 μM, and the concentration of DMSO was 5%. 5 μL of the diluted compound was added to the 50 μL cell culture system, the culture was cultured in a 5% CO2, 37° C. cell incubator for 60 min, 300 ng/mL of M-CSF was added to the cells, and the mixture was stimulated in the 37° C. cell incubator for 1 min, added 50 μL of cell lysis buffer, and stored in a refrigerator at −80° C.
100 μL/well of the p-CSF1R capture antibody diluted to 0.8 μg/mL with PBS was added to the ELISA plate, and the plate was coated on a shaker at room temperature overnight. The culture was washed with PBST, and then added blocking solution and incubated at room temperature for 2 h. The culture was washed with PBST, added 90 μL of cell lysis buffer, and incubated on a shaker at 25° C. for 2 h. The plate was washed with PBST three times, added 100 μL of anti-p-tyrosine-HRP detection antibody diluted with 0.1% PBS-BSA diluent, and incubated on a shaker at 25° C. for 2 h. The plate was washed with PBST washing liquid, added 100 μL of chromogenic substrate and incubated at room temperature for 10-20 min. The reaction was stopped by adding 50 μL of 2N H2SO4. The optical density signal (450/570 nm) of each well was detected in Labsystems Multiskan K3 or Envision.
wherein • Drug-treated well read-out: indicating the optical density signal of a cell well with the test compound treatment. • Background read-out: indicating the optical density signal of a well without cells but with cell lysis buffer. • Cell well read-out: indicating the optical density signal of a cell well not treated with the compound. 6. Calculation of IC50: obtained by using XL-Fit 5.3 software. 7. Test results

| pIC50 (Ba/F3^BCR-FMS-11 cells; Mus musculus, 72 h) | pIC50 [1] | pIC50 [2] | Structure (SMILES) | pIC50 (Ba/F3^BCR-FMS-11 cells; 72 hours) |
| --- | --- | --- | --- | --- |
| 8.15 | 8.40 | 8.40 | Cc1ncc(C(=O)Nc2ccc(Oc3ccnc(-c4cnn(C)c4)c3)cn2)c(=O)n1C [Compound 8, 1,2-dimethyl-N-(5-((2-(1-methyl-1H-pyrazol-4-yl)pyridin-4-yl)oxy)pyridin-2-yl)-6-oxo-1,6-dihydropyrimidine-5-carboxamide] |  |
| 6.97 | 7.92 | 6.98 | Cn1cc(-c2cc(Oc3ccc(NC(=O)c4ccc[nH]c4=O)nc3)ccn2)cn1 [Compound 9, N-(5-((2-(1-methyl-1H-pyrazol-4-yl)pyridin-4-yl)oxy)pyridin-2-yl)-2-oxo-1,2-dihydropyridine-3-carboxamide] |  |
| 7.06 | 7.82 | 7.21 | Cn1cc(-c2cc(Oc3ccc(NC(=O)c4cncn(C)c4=O)nc3)ccn2)cn1 [Compound 10] |  |
| 8.22 | 8.30 | 8.22 | Cn1cc(-c2cc(Oc3ccc(NC(=O)c4cnc5n(c4=O)CCC5)nc3)ccn2)cn1 [Compound 11] |  |
| 7.18 | 8.05 | 6.84 | Cc1c(F)cc(C(=O)Nc2ccc(Oc3ccnc(-c4cnn(C)c4)c3)cn2)c(=O)n1C [Compound 12] |  |
| 6.64 | 7.04 | 7.38 | Cc1ncn(C)c(=O)c1C(=O)Nc1ccc(Oc2ccnc(-c3cnn(C)c3)c2)cn1 [Compound 13] |  |
| 7.35 | 7.06 | 7.70 | Cc1cnc(Nc2cc(Oc3ccc(NC(=O)c4cnc(C)n(C)c4=O)nc3)ccn2)s1 [Compound 16] |  |
| 7.24 | 7.89 | 7.22 | COc1cc(Oc2ccnc(-c3cnn(C)c3)c2)ccc1NC(=O)c1cccn(C(C)C)c1=O [Compound 18] |  |
| 7.36 | 8.10 | 6.96 | CC(C)n1cccc(C(=O)Nc2ccc(Oc3ccnc(-c4cnn(C)c4)c3)cc2F)c1=O [Compound 20] |  |
| 7.14 | 7.55 | 7.37 | Cn1cnc(-c2cc(Oc3cnc(NC(=O)c4cccn(C)c4=O)c(F)c3)ccn2)c1 [Compound 21] |  |
| 7.85 | 7.96 | 8.00 | Cn1cc(-c2cc(Oc3cnc(NC(=O)c4cccn(C)c4=O)c(F)c3)ccn2)cn1 [Compound 22] |  |
| 7.35 | 7.66 | 7.42 | Cc1ncc(C(=O)Nc2ncc(Oc3ccnc(-c4cnn(C)c4)c3)cc2F)c(=O)n1C [Compound 23] |  |
| 7.43 | 7.52 | 7.23 | Cc1cc(Oc2ccnc(-c3cnn(C)c3)c2)cnc1NC(=O)c1cccn(C(C)C)c1=O [Compound 24] |  |
| 7.18 | 7.80 | 7.42 | CC(C)n1cccc(C(=O)Nc2ncc(Oc3ccnc(-c4cnn(C)c4)c3)cc2C#N)c1=O [Compound 25] |  |
| 8.10 | 8.10 | 7.74 | Cn1cc(-c2cc(Oc3ccc(NC(=O)c4ccc5n(c4=O)CCC5)nc3)ccn2)cn1 [Compound 27] |  |
| 7.62 | 7.46 | 7.85 | Cc1ncc(C(=O)Nc2ccc(Oc3ccnc(-c4cn(C)cn4)c3)cn2)c(=O)n1C [Compound 30] |  |
| 7.00 | 7.23 | 7.82 | Cc1cn(-c2cc(Oc3ccc(NC(=O)c4cnc(C)n(C)c4=O)nc3)ccn2)cn1 [Compound 32] |  |

| pIC50 (Ba/F3^BCR-FMS-11 cells; Mus musculus, 72 h) | pIC50 [1] | pIC50 [2] | Structure (SMILES) | pIC50 (Ba/F3^BCR-FMS-11 cells; 72 hours) |
| --- | --- | --- | --- | --- |
| 7.24 | 7.21 | 7.82 | Cc1ncc(C(=O)Nc2ccc(Oc3ccnc(-c4cccnc4)c3)cn2)c(=O)n1C [Compound 33] |  |
| 6.90 | 7.10 | 7.62 | Cc1ncc(C(=O)Nc2ccc(Oc3ccnc(-c4ccccn4)c3)cn2)c(=O)n1C [Compound 34] |  |
|  | 7.55 | 8.10 | Cc1cccc(Nc2cc(Oc3ccc(NC(=O)c4cnc(C)n(C)c4=O)nc3)ccn2)n1 [Compound 36] | 7.64 |
| 7.77 | 7.92 | 8.15 | CCn1cc(-c2cc(Oc3ccc(NC(=O)c4cnc(C)n(C)c4=O)nc3)ccn2)cn1 [Compound 38] |  |
| 7.20 | 7.48 | 7.92 | Cc1ncc(C(=O)Nc2ccc(Oc3ccnc(-c4cnn(C(C)C)c4)c3)cn2)c(=O)n1C [Compound 39] |  |
| 7.28 | 7.57 | 7.72 | Cc1ncc(C(=O)Nc2ccc(Oc3ccnc(-c4ccncc4)c3)cn2)c(=O)n1C [Compound 41] |  |
| 8.22 | 8.30 | 8.22 | Cc1ncc(C(=O)Nc2ccc(Oc3ccnc(Nc4ccn(C)n4)c3)cn2)c(=O)n1C [Compound 42] |  |
| 8.30 | 8.22 | 8.22 | Cc1ncc(C(=O)Nc2ccc(Oc3ccnc(Nc4ccnn4C)c3)cn2)c(=O)n1C [Compound 43] |  |
| 8.22 | 8.15 | 8.52 | Cn1ccc(Nc2cc(Oc3ccc(NC(=O)c4cnc5n(c4=O)CCC5)nc3)ccn2)n1 [Compound 44] |  |
| 8.05 | 8.05 | 8.52 | Cn1cc(Nc2cc(Oc3ccc(NC(=O)c4cnc5n(c4=O)CCC5)nc3)ccn2)cn1 [Compound 45] |  |
| 7.70 | 7.92 | 8.05 | Cn1ccc(Nc2cc(Oc3ccc(NC(=O)c4cccn(C)c4=O)nc3)ccn2)n1 [Compound 46] |  |
| 8.22 | 8.30 | 8.52 | Cn1nccc1Nc1cc(Oc2ccc(NC(=O)c3cnc4n(c3=O)CCC4)nc2)ccn1 [Compound 47] |  |
| 8.30 | 8.30 | 8.30 | Cn1nccc1Nc1cc(Oc2ccc(NC(=O)c3cccn(C)c3=O)nc2)ccn1 [Compound 48] |  |
| 7.62 | 7.64 | 7.85 | Cc1ncc(C(=O)Nc2ccc(Oc3ccnc(-c4cnn(C(F)F)c4)c3)cn2)c(=O)n1C [Compound 49] |  |
| 6.95 | 7.11 | 7.27 | Cc1ncc(C(=O)Nc2ccc(Oc3ccnc(-c4ccc(F)cc4)c3)cn2)c(=O)n1C [Compound 50] |  |
| 7.01 | 7.25 | 7.17 | Cc1ncc(C(=O)Nc2ccc(Oc3ccnc(-c4ccccc4)c3)cn2)c(=O)n1C [Compound 51] |  |
| 8.30 | 8.52 | 8.15 | CCn1cccc(C(=O)Nc2ccc(Oc3ccnc(-c4cnn(C)c4)c3)cn2)c1=O [Compound 55] |  |

| Structure (SMILES) | pIC50 (Ba/F3^BCR-FMS-11 cells; Mus musculus, 72 h) | pIC50 [1] | pIC50 [2] | pIC50 (Ba/F3^BCR-FMS-11 cells; 72 hours) |
| --- | --- | --- | --- | --- |
| CC(C)n1cccc(C(=O)Nc2ccc(Oc3ccnc(-c4ncn(C)n4)c3)cn2)c1=O [Compound 15] |  | 7.47 | 6.67 | 6.31 |
